From patent US20020035061A1, “COMPOSITIONS AND METHODS FOR TREATING INFECTIONS USING CATIONIC PEPTIDES ALONE OR IN COMBINATION WITH ANTIBIOTICS” (priority 1996, published 2002)
Read-outs that look alike come from different tables or passages of the source.

Columns and labels:
Format in all cases: cell-based
A. calcoaceticus = system: A. calcoaceticus
E. cloacae = system: E. cloacae
E. coli = system: E. coli
E. faecalis = system: E. faecalis
K. pneumoniae = system: K. pneumoniae
P. aeruginosa = system: P. aeruginosa
S. aureus = system: S. aureus
S. epidermidis = system: S. epidermidis
S. maltophilia = system: S. maltophilia
S. marcescens = system: S. marcescens
bacterial isolates = assay: microbe, parasite or virus in culture
[1] = system: inherently resistant microorganisms; assay: microbe, parasite or virus in culture
[2] = system: microorganisms with acquired resistance; assay: microbe, parasite or virus in culture
[3] = peptide + Amikacin, P. aeruginosa PA022
[4] = peptide + Gentamicin, A. baumannii ABI001
[5] = peptide + Gentamicin, A. baumannii ABI002
[6] = peptide + Gentamicin, A. calcoaceticus AC001
[7] = peptide + Gentamicin, P. aeruginosa PA041
[8] = peptide + Gentamicin, S. maltophilia SMA019

ILRWPWWPWRRKIMILKKAGS [MBI 11B16CN]
MIC (A. calcoaceticus; A. calcoaceticus strain AC002): 4 mg/L
MIC (E. cloacae; E. cloacae strain ECL007): >128 mg/L
MIC (E. coli; E. coli strain ECO005): 16 mg/L
MIC (E. faecalis; E. faecalis strain EFS001): 2 mg/L
MIC (K. pneumoniae; K. pneumoniae strain KP001): 16 mg/L
MIC (P. aeruginosa; P. aeruginosa strain PA004): >128 mg/L
MIC (S. aureus; S. aureus strain SA093): 2 mg/L
MIC (S. epidermidis; S. epidermidis strain SE010): 4 mg/L
MIC (S. maltophilia; S. maltophilia strain SMA002): 32 mg/L
MIC (S. marcescens; S. marcescens strain SMS003): >128 mg/L
Peptide MIC Alone (bacterial isolates; 1. Amikacin, A. baumannii ABI001): 32 mg/L
Peptide MIC Alone (bacterial isolates; 1. Amikacin, A. baumannii ABI003): 16 mg/L
Peptide MIC Alone (bacterial isolates; 1. Amikacin, E. faecalis EFS008): 8 mg/L
Peptide MIC Alone (bacterial isolates; 1. Amikacin, P. aeruginosa PA022): 64 mg/L
Peptide MIC Alone (bacterial isolates; 1. Amikacin, P. aeruginosa PA037): >128 mg/L
Peptide MIC Alone (bacterial isolates; 1. Amikacin, S. maltophilia SMA018): 32 mg/L
Peptide MIC Alone (bacterial isolates; 1. Amikacin, S. maltophilia SMA022): >128 mg/L
Peptide MIC Alone (bacterial isolates; 4. Gentamicin, A. baumannii ABI001): 16 mg/L
Peptide MIC Alone (bacterial isolates; 4. Gentamicin, A. baumannii ABI002): 16 mg/L
Peptide MIC Alone (bacterial isolates; 4. Gentamicin, A. calcoaceticus AC001): 32 mg/L
Peptide MIC Alone (bacterial isolates; 4. Gentamicin, E. faecalis EFS008): 4 mg/L
Peptide MIC Alone (bacterial isolates; 4. Gentamicin, P. aeruginosa PA022): 64 mg/L
Peptide MIC Alone (bacterial isolates; 4. Gentamicin, P. aeruginosa PA041): >128 mg/L
Peptide MIC Alone (bacterial isolates; 4. Gentamicin, S. aureus SA014 MRSA): 8 mg/L
Peptide MIC Alone (bacterial isolates; 4. Gentamicin, S. maltophilia SMA016): >128 mg/L
Peptide MIC Alone (bacterial isolates; 4. Gentamicin, S. maltophilia SMA019): 32 mg/L
Amikacin MIC + Peptide (bacterial isolates; A. baumannii ABI001): 0.125 mg/L
Gentamicin MIC + Peptide (bacterial isolates; A. baumannii ABI001): 4 mg/L
Peptide MIC + Amikacin (bacterial isolates; A. baumannii ABI001): 16 mg/L
Peptide MIC + Gentamicin (bacterial isolates; A. baumannii ABI001): 4 mg/L
Gentamicin MIC + Peptide (bacterial isolates; A. baumannii ABI002): 2 mg/L
Peptide MIC + Gentamicin (bacterial isolates; A. baumannii ABI002): 4 mg/L
Amikacin MIC + Peptide (bacterial isolates; A. baumannii ABI003): 0.5 mg/L
Peptide MIC + Amikacin (bacterial isolates; A. baumannii ABI003): 8 mg/L
Gentamicin MIC + Peptide (bacterial isolates; A. calcoaceticus AC001): 1 mg/L
Peptide MIC + Gentamicin (bacterial isolates; A. calcoaceticus AC001): 4 mg/L
Amikacin MIC + Peptide (bacterial isolates; E. faecalis EFS008): 8 mg/L
Gentamicin MIC + Peptide (bacterial isolates; E. faecalis EFS008): 64 mg/L
Peptide MIC + Amikacin (bacterial isolates; E. faecalis EFS008): 0.25 mg/L
Peptide MIC + Gentamicin (bacterial isolates; E. faecalis EFS008): 0.5 mg/L
Amikacin MIC + Peptide (bacterial isolates; P. aeruginosa PA022): 8 mg/L
Gentamicin MIC + Peptide (bacterial isolates; P. aeruginosa PA022): 8 mg/L
Peptide MIC + Amikacin (bacterial isolates; P. aeruginosa PA022): 16 mg/L
Peptide MIC + Gentamicin (bacterial isolates; P. aeruginosa PA022): 8 mg/L
Amikacin MIC + Peptide (bacterial isolates; P. aeruginosa PA037): 2 mg/L
Peptide MIC + Amikacin (bacterial isolates; P. aeruginosa PA037): 32 mg/L
Gentamicin MIC + Peptide (bacterial isolates; P. aeruginosa PA041): 2 mg/L
Peptide MIC + Gentamicin (bacterial isolates; P. aeruginosa PA041): 16 mg/L
Gentamicin MIC + Peptide (bacterial isolates; S. aureus SA014 MRSA): 1 mg/L
Peptide MIC + Gentamicin (bacterial isolates; S. aureus SA014 MRSA): 4 mg/L
Gentamicin MIC + Peptide (bacterial isolates; S. maltophilia SMA016): 64 mg/L
Peptide MIC + Gentamicin (bacterial isolates; S. maltophilia SMA016): 16 mg/L
Amikacin MIC + Peptide (bacterial isolates; S. maltophilia SMA018): 8 mg/L
Peptide MIC + Amikacin (bacterial isolates; S. maltophilia SMA018): 8 mg/L
Gentamicin MIC + Peptide (bacterial isolates; S. maltophilia SMA019): 8 mg/L
Peptide MIC + Gentamicin (bacterial isolates; S. maltophilia SMA019): 8 mg/L
Amikacin MIC + Peptide (bacterial isolates; S. maltophilia SMA022): 8 mg/L
Peptide MIC + Amikacin (bacterial isolates; S. maltophilia SMA022): 16 mg/L
FIC (bacterial isolates; peptide + Amikacin, A. baumannii ABI001): 0.50
FIC (bacterial isolates; peptide + Amikacin, A. baumannii ABI003): 0.53
FIC (bacterial isolates; peptide + Amikacin, E. faecalis EFS008): 0.28
FIC (bacterial isolates; [3]): 0.38
FIC (bacterial isolates; peptide + Amikacin, P. aeruginosa PA037): 0.25
FIC (bacterial isolates; peptide + Amikacin, S. maltophilia SMA018): 0.31
FIC (bacterial isolates; peptide + Amikacin, S. maltophilia SMA022): 0.09
FIC (bacterial isolates; [4]): 0.31
FIC (bacterial isolates; [5]): 0.31
FIC (bacterial isolates; [6]): 0.25
FIC (bacterial isolates; peptide + Gentamicin, E. faecalis EFS008): 0.38
FIC (bacterial isolates; peptide + Gentamicin, P. aeruginosa PA022): 0.38
FIC (bacterial isolates; [7]): 0.31
FIC (bacterial isolates; peptide + Gentamicin, S. aureus SA014 MRSA): 0.53
FIC (bacterial isolates; peptide + Gentamicin, S. maltophilia SMA016): 0.31
FIC (bacterial isolates; [8]): 0.38
Peptide MIC + Amikacin ([1]; A. baumannii): 4 mg/L
Peptide MIC Alone ([1]; A. baumannii, Amikacin section): 32 mg/L
Peptide MIC + Amikacin ([1]; S. aureus MRSA): 4 mg/L
Peptide MIC + Gentamicin ([1]; S. aureus MRSA): 4 mg/L
Peptide MIC Alone ([1]; S. aureus MRSA, Amikacin section): 8 mg/L
Peptide MIC Alone ([1]; S. aureus MRSA, Gentamicin section): 8 mg/L
FIC ([1]; peptide + Amikacin, A. baumannii): 0.25
FIC ([1]; peptide + Gentamicin, S. aureus MRSA): 0.53
Gentamicin MIC + Peptide ([2]; A. baumannii ABI001): 4 mg/L
Peptide MIC + Gentamicin ([2]; A. baumannii ABI001): 4 mg/L
Peptide MIC Alone ([2]; A. baumannii ABI001, Gentamicin section): 16 mg/L
Gentamicin MIC + Peptide ([2]; A. baumannii ABI002): 2 mg/L
Peptide MIC + Gentamicin ([2]; A. baumannii ABI002): 4 mg/L
Peptide MIC Alone ([2]; A. baumannii ABI002, Gentamicin section): 16 mg/L
Gentamicin MIC + Peptide ([2]; A. calcoaceticus AC001): 1 mg/L
Peptide MIC + Gentamicin ([2]; A. calcoaceticus AC001): 4 mg/L
Peptide MIC Alone ([2]; A. calcoaceticus AC001, Gentamicin section): 32 mg/L
Amikacin MIC + Peptide ([2]; P. aeruginosa PA022): 8 mg/L
Peptide MIC + Amikacin ([2]; P. aeruginosa PA022): 16 mg/L
Peptide MIC Alone ([2]; P. aeruginosa PA022, Amikacin section): 64 mg/L
Gentamicin MIC + Peptide ([2]; P. aeruginosa PA023): 4 mg/L
Peptide MIC + Gentamicin ([2]; P. aeruginosa PA023): 16 mg/L
Peptide MIC Alone ([2]; P. aeruginosa PA023, Gentamicin section): >128 mg/L
Gentamicin MIC + Peptide ([2]; P. aeruginosa PA041): 2 mg/L
Peptide MIC + Gentamicin ([2]; P. aeruginosa PA041): 16 mg/L
Peptide MIC Alone ([2]; P. aeruginosa PA041, Gentamicin section): >128 mg/L
Gentamicin MIC + Peptide ([2]; S. maltophilia SMA017): 2 mg/L
Peptide MIC + Gentamicin ([2]; S. maltophilia SMA017): 16 mg/L
Peptide MIC Alone ([2]; S. maltophilia SMA017, Gentamicin section): 128 mg/L
Gentamicin MIC + Peptide ([2]; S. maltophilia SMA019): 0.5 mg/L
Peptide MIC + Gentamicin ([2]; S. maltophilia SMA019): 16 mg/L
Peptide MIC Alone ([2]; S. maltophilia SMA019, Gentamicin section): 32 mg/L
FIC [2, 3]: 0.38
FIC [2, 4]: 0.31
FIC [2, 5]: 0.31
FIC [2, 6]: 0.25
FIC ([2]; peptide + Gentamicin, P. aeruginosa PA023): 0.56
FIC [2, 7]: 0.31
FIC ([2]; peptide + Gentamicin, S. maltophilia SMA017): 0.16
FIC [2, 8]: 0.51

LRWPWWPW [MBI 11G26CN]
MIC (A. calcoaceticus; A. calcoaceticus AC002): 2 mg/L
MIC (E. cloacae; E. cloacae ECL007): >128 mg/L
MIC (E. coli; E. coli ECO005): 32 mg/L
MIC (E. faecalis; E. faecalis EFS001): 2 mg/L
MIC (E. faecalis; E. faecalis EFS008): 4 mg/L
MIC (K. pneumoniae; K. pneumoniae KP001): 32 mg/L
MIC (P. aeruginosa; P. aeruginosa PA004): >128 mg/L
MIC (S. aureus; S. aureus SA014): 4 mg/L
MIC (S. aureus; S. aureus SA093): 0.5 mg/L
MIC (S. epidermidis; S. epidermidis SE010): 4 mg/L
MIC (S. maltophilia; S. maltophilia SMA002): 128 mg/L
MIC (S. marcescens; S. marcescens SMS003): >128 mg/L

LRWWWPWRRK [MBI 11G25CN]
MIC (A. calcoaceticus; A. calcoaceticus AC002): 2 mg/L
MIC (E. cloacae; E. cloacae ECL007): >128 mg/L
MIC (E. coli; E. coli ECO005): 8 mg/L
MIC (E. faecalis; E. faecalis EFS001): 2 mg/L
MIC (E. faecalis; E. faecalis EFS008): 16 mg/L
MIC (K. pneumoniae; K. pneumoniae KP001): 16 mg/L
MIC (P. aeruginosa; P. aeruginosa PA004): 64 mg/L
MIC (S. aureus; S. aureus SA014): 2 mg/L
MIC (S. aureus; S. aureus SA093): 1 mg/L
MIC (S. epidermidis; S. epidermidis SE010): 2 mg/L
MIC (S. maltophilia; S. maltophilia SMA002): 32 mg/L
MIC (S. marcescens; S. marcescens SMS003): >128 mg/L

LWPWWPWRRK [MBI 11G24CN]
MIC (A. calcoaceticus; A. calcoaceticus AC002): 4 mg/L
MIC (E. cloacae; E. cloacae ECL007): >128 mg/L
MIC (E. coli; E. coli ECO005): 16 mg/L
MIC (E. faecalis; E. faecalis EFS001): 2 mg/L
MIC (E. faecalis; E. faecalis EFS008): 8 mg/L
MIC (K. pneumoniae; K. pneumoniae KP001): 16 mg/L
MIC (P. aeruginosa; P. aeruginosa PA004): 128 mg/L
MIC (S. aureus; S. aureus SA014): 2 mg/L
MIC (S. aureus; S. aureus SA093): 1 mg/L
MIC (S. epidermidis; S. epidermidis SE010): 4 mg/L
MIC (S. maltophilia; S. maltophilia SMA002): 32 mg/L
MIC (S. marcescens; S. marcescens SMS003): >128 mg/L
